Series [1] concerns patients after Austin bunionectomy surgery. To be noted: for use of rescue medication (oxycodone), Mean (SD): n = 43. Here is the method: Each transdermal delivery device was applied to the subject between 10 hours and 14 hours before each patient underwent Austin bunionectomy surgery with standard intraoperative anesthesia.
Pain was evaluated in patients at times from immediately after surgery through 72 hours after surgery using the Pain Intensity Numeric Rating Scale (NRS) and Summed Pain Intensity (NRSSPI). Pain was also evaluated based on the time and first use of rescue pain medication as well as total use of rescue medication.

Like-named read-outs stand apart in the source and are kept apart here.

`Cc1cccc([C@H](C)c2cnc[nH]2)c1C` [Dexmedetomidine]: the “use of rescue medication (oxycodone), Mean (SD)” value is 23.5 (11.98) in series [1] (0 to 24 Hours after Surgery), 37.5 (22.74) in series [1] (0 to 48 Hours after Surgery) and 46.4 (30.80) in series [1] (0 to 72 Hours after Surgery). In addition, the “proportion of patients requesting rescue medication” value in series [1] (first six hours after surgery, vs placebo) is “lower proportion”. The “pain intensity difference between dexmedetomidine and placebo” value in series [1] (over a 4-fold mean plasma dexmedetomidine concentration range) was “constant”. Besides, in series [1] (through 72 hours after surgery, 2×3 cm^2 patch), the “pain rating (Numerical Rating Scale) compared to placebo” value is listed as “lower pain rating”. The “frequency of requests for rescue medication” value in series [1] (vs placebo) is “less frequently”. The solubility of dexmedetomidine entry is “less than 2%” (in Duro-Tak 87-2979); 10-15% (in Duro-Tak 387/87-2353); “less than 1%” (in hydroxyl functionalized acrylate polymer); roughly 60% (in levulinic acid); roughly 40% (in oleic acid).

These data come from patent US12527770B2 (Teikoku Pharma USA, Inc., priority 2016, dated 2026).
